# Tests used:
# hGCGR mouse = test: Blunting of glucagon-induced blood glucose excursion in hGCGR mouse; type: in vivo; conditions: vehicle 1393±179
# Method: (§1) In mouse studies of glucagon-induced excursions in blood glucose, animals were dosed orally with vehicle (10 mL/kg 0.5% aqueous methylcellulose) or GRA1 one hour prior to challenge by intraperitoneal injection of 15 µg/kg glucagon (Eli Lilly, Indianapolis, IN) or vehicle, [20]. In the studies in monkey, GRA1 or vehicle was administered to chair-restrained animals via a nasogastric tube 4 h prior to intramuscular injection of 15 µg/kg glucagon. Blood glucose measurements were made using a OneTouch glucometer (Lifescan, Milpitas, CA).
# (§2) Figure 3 Blunting of glucagon-induced blood glucose excursions by GRA1 treatment in the (A) hGCGR mouse and (B) rhesus monkey. In (A), mice (n = 8) were administered vehicle or 3, 10 or 30 mg/kg GRA1, then challenged 1 h later (time 0) by intraperitoneal injection of 15 µg/kg glucagon or vehicle. Pharmacokinetic analysis determined that these animals had mean plasma GRA1 concentrations of 0.4, 0.9, and 4.7 µM, respectively, at 1 h postdose. In (B), monkeys (n = 4) were administered 1 mg/kg GRA1 4 h prior to intramuscular injection of 15 µg/kg glucagon or vehicle. At 1 h postdose, the mean plasma GRA1 concentration in these animals was 0.2 µM. *p<0.05; **p<0.01; and ***p<0.001 vs. glucagon-treated control animals.
# rhesus monkey = test: Blunting of glucagon-induced blood glucose excursion in rhesus monkey; type: in vivo; conditions: 1 mg/kg 4 h before 15 µg/kg glucagon i.m.
# Method: as §1, §2
# mouse GCGR = molecular target: T1, mouse GCGR (Mus musculus, UniProt Q61606); test: Inhibition of glucagon-stimulated cAMP production in CHO cells expressing mouse GCGR; type: cell-based
# T1 construct: expressed in transfected cells
# Method: Transfected Chinese hamster ovary (CHO) cell lines were acquired and maintained as previously described [17], [20]. These included separate cell lines stably expressing human GCGR (hGCGR), mouse GCGR, rhesus GGCR, glucose-dependent insulinotropic peptide receptor (GIPR), GLP-1 receptor (GLP-1R), pituitary adenylate cyclase-activating polypeptide receptor type 1 (PAC1R), and vasoactive adenylate cyclase-activating polypeptide receptor type 2 (VPAC2R). […] Functional antagonism was assayed by measuring the production of cAMP in intact CHO cells stimulated by agonists specific for their cognate receptors (i.e., glucagon for GCGR-expressing cell lines, GIP for the GIPR-expressing line, etc.).
# human GCGR (hGCGR) = molecular target: T2, human GCGR (hGCGR) (Homo sapiens, UniProt P47871); test: Inhibition of glucagon-stimulated cAMP production in intact CHO cells expressing human GCGR; type: cell-based
# T2 construct: expressed in transfected cells
# Text: Transfected Chinese hamster ovary (CHO) cell lines were acquired and maintained as previously described, [20]. These included separate cell lines stably expressing human GCGR (hGCGR), mouse GCGR, rhesus GGCR, glucose-dependent insulinotropic peptide receptor (GIPR), GLP-1 receptor (GLP-1R), pituitary adenylate cyclase-activating polypeptide receptor type 1 (PAC1R), and vasoactive adenylate cyclase-activating polypeptide receptor type 2 (VPAC2R). Inhibition of glucagon binding to hGCGR was assayed in cell membranes prepared from the line of CHO cells that expressed the hGCGR. Functional antagonism was assayed by measuring the production of cAMP in intact CHO cells stimulated by agonists specific for their cognate receptors (i.e., glucagon for GCGR-expressing cell lines, GIP for the GIPR-expressing line, etc.). Primary human hepatocytes were obtained from In Vitro Technologies (Baltimore, MD) and glucagon-stimulated glycogenolysis was studied in these as previously described.
# [1] = system: primary human hepatocytes; test: Glucagon-stimulated glycogenolysis in primary human hepatocytes; type: cell-based; conditions: 1 h
# Method: Figure 1 GRA1 inhibits glucagon-mediated glycogenolysis in vitro and ex-vivo. (A) The chemical structure of GRA1. (B) Dose-dependent inhibition of glucagon-stimulated glycogenolysis in human hepatocytes. The cells were pretreated for 3 h with 200 nM insulin and then challenged with 2 nM glucagon with vehicle (Veh, medium with 1% DMSO) or 0.3–10 µM GRA1. Glycogen content was measured after incubating for 1 h. *p<0.05 and **p<0.01 vs. glucagon+vehicle alone. (C) Inhibition of glucagon-stimulated glycogenolysis in perfused liver prepared from the hGCGR mouse. Livers were perfused with Ringers solution containing 6.7 mM [2-^13C]pyruvate while ^13C content (indicative of accumulated [^13C]glycogen) was monitored dynamically by nuclear magnetic resonance imaging. At time = −22 min, 0.1–3.0 uM GRA1 or vehicle was added to the perfusate; 50 pM glucagon or vehicle was added at time 0. The data are means ±SEM.
# Transfected Chinese hamster ovary (CHO) cell lines were acquired and maintained as previously described, [20]. These included separate cell lines stably expressing human GCGR (hGCGR), mouse GCGR, rhesus GGCR, glucose-dependent insulinotropic peptide receptor (GIPR), GLP-1 receptor (GLP-1R), pituitary adenylate cyclase-activating polypeptide receptor type 1 (PAC1R), and vasoactive adenylate cyclase-activating polypeptide receptor type 2 (VPAC2R). […]
# [2] = Pharmacokinetics / plasma GRA1 concentrations in hGCGR mice; type: in vivo; conditions: mouse
# Method: Under control conditions, hGCGR mice were normoglycemic and treatment of these animals with GRA1 lowered blood glucose concentrations only moderately.
# Figure 2 In vivo inhibition of hepatic ^125I-glucagon binding in the hGCGR mouse following (A) acute and (B) chronic dosing with GRA1. The data are mean (±SEM) percent reductions in liver ^125I-glucagon content measured (A) 1, 3, 5, and 8 h after a single oral dose of 3 mg/kg GRA1, and (B) after treatment for 30 days with control diet or food/drug admixtures that provided 3, 6, 10, or 30 mg/kg·day GRA1. Pharmacokinetic analysis performed during the experiment in (A) determined that mean plasma GRA1 concentrations were 0.5, 0.6, 0.5, and 0.7 µM at 1, 3, 5, and 8 h postdose, respectively. TEXT PRINTED IN THE PICTURE: (A) no label printed: Receptor occupancy (%): 64% (Time postdose (h): 1); Receptor occupancy (%): 71% (Time postdose (h): 3); Receptor occupancy (%): 65% (Time postdose (h): 5); Receptor occupancy (%): 73% (Time postdose (h): 8) | (B) no label printed: Receptor occupancy (%): 71% (Dose (mg/kg): 3); Receptor occupancy (%): 78% (Dose (mg/kg): 6); Receptor occupancy (%): 83% (Dose (mg/kg): 10); Receptor occupancy (%): 93% (Dose (mg/kg): 30)
# as §2
# [3] = as above; type: in vivo, hGCGR mouse; conditions: single oral dose 2 mg/kg
# T1 sequence (Q61606 27-485): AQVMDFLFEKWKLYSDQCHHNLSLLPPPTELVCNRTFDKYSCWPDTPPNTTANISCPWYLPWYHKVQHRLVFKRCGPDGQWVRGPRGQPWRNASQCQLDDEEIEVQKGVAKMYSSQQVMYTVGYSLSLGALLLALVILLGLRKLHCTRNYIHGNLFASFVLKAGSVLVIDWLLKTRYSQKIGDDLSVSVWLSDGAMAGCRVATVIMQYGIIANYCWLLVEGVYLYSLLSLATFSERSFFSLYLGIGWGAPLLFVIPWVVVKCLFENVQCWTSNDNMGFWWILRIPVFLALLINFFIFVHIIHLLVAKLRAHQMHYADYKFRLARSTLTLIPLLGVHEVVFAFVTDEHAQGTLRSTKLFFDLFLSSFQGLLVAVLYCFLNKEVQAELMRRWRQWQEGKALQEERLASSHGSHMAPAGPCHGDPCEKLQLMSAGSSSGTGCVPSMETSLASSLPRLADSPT
# T2 sequence (P47871 26-477): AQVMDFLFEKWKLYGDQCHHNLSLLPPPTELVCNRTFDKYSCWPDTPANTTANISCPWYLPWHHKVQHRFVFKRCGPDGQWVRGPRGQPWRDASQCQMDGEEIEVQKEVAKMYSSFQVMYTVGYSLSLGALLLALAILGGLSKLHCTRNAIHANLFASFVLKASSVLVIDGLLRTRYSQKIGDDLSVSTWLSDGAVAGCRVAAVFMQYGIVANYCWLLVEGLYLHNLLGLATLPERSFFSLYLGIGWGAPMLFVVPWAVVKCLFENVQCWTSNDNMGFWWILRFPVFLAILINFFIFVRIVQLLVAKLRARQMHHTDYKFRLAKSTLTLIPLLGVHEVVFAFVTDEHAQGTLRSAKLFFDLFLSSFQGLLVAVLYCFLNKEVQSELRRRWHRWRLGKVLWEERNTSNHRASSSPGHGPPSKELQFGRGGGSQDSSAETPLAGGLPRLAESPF
compound,measurement,setting,value
"COc1ccc2cc(-c3cc(-c4cc(C(F)(F)F)ccc4F)nn3[C@@H](C)c3ccc(C(=O)NCCC(=O)O)cc3)ccc2c1 [GRA1, N-[4-((1S)-1-{3-(2-fluoro-5-trifluoromethylphenyl)-5-[6-methoxynaphth-2-yl]-1H-pyrazol-1-yl}ethyl)benzoyl]-β-alanine]",Baseline-subtracted mean AUC0–50 of glucagon-stimulated blood glucose excursion,hGCGR mouse; 3 mg/kg p.o. 1 h before 15 µg/kg glucagion i.p.,812 ± 122 mg·min/dL
same,Baseline-subtracted mean AUC0–50 of glucagon-stimulated blood glucose excursion,hGCGR mouse; 10 mg/kg p.o. 1 h before 15 µg/kg glucagon i.p.,543 ± 68 mg·min/dL
same,Baseline-subtracted mean AUC0–50 of glucagon-stimulated blood glucose excursion,hGCGR mouse; 30 mg/kg p.o. 1 h before 15 µg/kg glucagon i.p.,476 ± 64 mg·min/dL
same,Reduction of magnitude of glucagon-stimulated blood glucose excursion,rhesus monkey,about 50%
same,IC50,mouse GCGR,178 nM
same,IC50,human GCGR (hGCGR),12 nM
same,Inhibition of glucagon-induced glycogen loss,"[1]; 10 µM GRA1, 2 nM glucagon",completely prevented
same,inhibition at 0.3 µM,"[1]; Homo sapiens, Hepatocyte, 0.3 µM GRA1, 2 nM glucagon, read-out: Inhibition of glucagon-induced glycogen loss",~50%
same,concentration at 1 h,"[2]; oral, 3 mg/kg p.o., 1 h postdose (glucagon challenge)",400 nM
same,concentration at 1 h,"[2]; oral, 10 mg/kg p.o., 1 h postdose (glucagon challenge)",900 nM
same,concentration at 1 h,"[2]; oral, 30 mg/kg p.o., 1 h postdose (glucagon challenge)",4700 nM
same,concentration at 1 h,"[2]; single oral 3 mg/kg, 1 h postdose (occupancy experiment)",500 nM
same,concentration at 3 h,"[2]; single oral 3 mg/kg, 3 h postdose (occupancy experiment)",600 nM
same,concentration at 5 h,"[2]; single oral 3 mg/kg, 5 h postdose (occupancy experiment)",500 nM
same,concentration at 8 h,"[2]; single oral 3 mg/kg, 8 h postdose (occupancy experiment)",700 nM
same,half-life,"[3]; mouse, plasma, read-out: Apparent plasma terminal half-life (converted)",6.8 h
same,Mean rate of absorption from the gut,[3],69%
same,Route of excretion,[3],nearly all absorbed drug was subsequently excreted unchanged via the bile

# Source: article PMC3501516, “Anti-Diabetic Efficacy and Impact on Amino Acid Metabolism of GRA1, a Novel Small-Molecule Glucagon Receptor Antagonist” (PLoS ONE, 2012)
